Measurements from publication PMC8213057, “Targeting ALK2: An Open Science Approach to Developing Therapeutics for the Treatment of Diffuse Intrinsic Pontine Glioma” (Journal of Medicinal Chemistry, 2020).

Key:
PKCa = PKCa (Homo sapiens, UniProt P17252); conditions: 1 μM; Run 1, Run 2
P38g = molecular target: T1, P38g (Homo sapiens, UniProt P53778); conditions: 1 μM; Run 1, Run 2
T1 sequence (P53778 1-367): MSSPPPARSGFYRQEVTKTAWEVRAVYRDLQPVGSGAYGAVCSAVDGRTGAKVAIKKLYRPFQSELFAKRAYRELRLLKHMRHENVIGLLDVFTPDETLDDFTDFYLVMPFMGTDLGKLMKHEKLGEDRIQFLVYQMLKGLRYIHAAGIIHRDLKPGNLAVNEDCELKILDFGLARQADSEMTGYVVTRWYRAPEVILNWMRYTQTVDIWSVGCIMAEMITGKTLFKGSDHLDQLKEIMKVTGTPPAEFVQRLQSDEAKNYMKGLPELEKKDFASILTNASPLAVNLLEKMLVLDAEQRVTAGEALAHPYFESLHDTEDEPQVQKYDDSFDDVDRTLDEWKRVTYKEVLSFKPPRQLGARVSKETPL

PKD2/PRKD2 = molecular target: T2, PKD2/PRKD2 (Homo sapiens, UniProt Q9BZL6); test: biochemical; conditions: read-out: % enzyme activity, 1 μM; Run 1, Run 2
T2 sequence (Q9BZL6 1-878): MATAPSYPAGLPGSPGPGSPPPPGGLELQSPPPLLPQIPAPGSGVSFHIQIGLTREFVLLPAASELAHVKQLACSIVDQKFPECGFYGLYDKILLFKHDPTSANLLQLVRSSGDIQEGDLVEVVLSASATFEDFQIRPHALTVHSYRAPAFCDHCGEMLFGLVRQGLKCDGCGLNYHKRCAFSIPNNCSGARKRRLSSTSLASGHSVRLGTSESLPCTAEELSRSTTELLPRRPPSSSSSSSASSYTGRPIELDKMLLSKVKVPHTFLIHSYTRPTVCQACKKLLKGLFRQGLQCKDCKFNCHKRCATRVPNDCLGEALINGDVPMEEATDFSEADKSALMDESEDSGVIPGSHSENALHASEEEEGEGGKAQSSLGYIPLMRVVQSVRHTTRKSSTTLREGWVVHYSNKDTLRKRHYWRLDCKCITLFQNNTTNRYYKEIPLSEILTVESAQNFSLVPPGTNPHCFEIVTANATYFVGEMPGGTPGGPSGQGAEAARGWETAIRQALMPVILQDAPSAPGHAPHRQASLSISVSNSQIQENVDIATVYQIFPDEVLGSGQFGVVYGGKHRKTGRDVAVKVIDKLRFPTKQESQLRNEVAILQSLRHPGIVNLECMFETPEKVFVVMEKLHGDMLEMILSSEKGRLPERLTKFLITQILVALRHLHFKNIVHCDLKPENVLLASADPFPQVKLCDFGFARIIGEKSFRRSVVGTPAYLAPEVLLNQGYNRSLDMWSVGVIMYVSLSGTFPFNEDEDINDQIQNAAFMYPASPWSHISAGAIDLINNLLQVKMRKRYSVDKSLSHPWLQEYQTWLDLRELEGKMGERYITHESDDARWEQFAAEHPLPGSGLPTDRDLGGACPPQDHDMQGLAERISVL

CDK18/cyclin Y (PCTK3) = CDK18/cyclin Y (PCTK3) (Homo sapiens, UniProt Q07002); conditions: 1 μM; Run 1, Run 2
ROCK1 = ROCK1 (Homo sapiens, UniProt Q13464); conditions: 1 μM; Run 1, Run 2
MYLK3 = molecular target: T3, MYLK3 (Homo sapiens, UniProt Q32MK0); test: biochemical; conditions: read-out: % enzyme activity, 1 μM; Run 1, Run 2
T3 sequence (Q32MK0 1-819): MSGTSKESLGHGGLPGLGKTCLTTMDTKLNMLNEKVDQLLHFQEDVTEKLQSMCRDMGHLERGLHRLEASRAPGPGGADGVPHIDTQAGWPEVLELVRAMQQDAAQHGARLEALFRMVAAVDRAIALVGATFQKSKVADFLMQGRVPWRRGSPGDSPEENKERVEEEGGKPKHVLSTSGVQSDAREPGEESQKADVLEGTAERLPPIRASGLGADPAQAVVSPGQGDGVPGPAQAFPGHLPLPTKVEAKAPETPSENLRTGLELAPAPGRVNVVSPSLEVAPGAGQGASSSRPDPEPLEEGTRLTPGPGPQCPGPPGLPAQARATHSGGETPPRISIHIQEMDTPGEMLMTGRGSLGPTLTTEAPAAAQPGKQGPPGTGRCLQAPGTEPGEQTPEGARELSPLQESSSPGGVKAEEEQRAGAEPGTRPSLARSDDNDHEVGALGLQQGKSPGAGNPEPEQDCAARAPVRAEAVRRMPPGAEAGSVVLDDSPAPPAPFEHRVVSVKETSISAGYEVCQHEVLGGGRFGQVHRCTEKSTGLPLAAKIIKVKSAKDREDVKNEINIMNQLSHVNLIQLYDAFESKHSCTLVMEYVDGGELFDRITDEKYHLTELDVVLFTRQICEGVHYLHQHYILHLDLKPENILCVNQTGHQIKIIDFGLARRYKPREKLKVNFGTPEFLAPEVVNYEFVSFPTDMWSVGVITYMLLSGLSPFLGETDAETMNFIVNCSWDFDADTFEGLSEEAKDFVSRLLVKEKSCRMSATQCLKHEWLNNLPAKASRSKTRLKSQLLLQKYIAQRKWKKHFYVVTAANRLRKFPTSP

CDK9/cyclin T2 = CDK9/cyclin T2 (Homo sapiens, UniProt P50750); conditions: 1 μM; Run 1, Run 2
MEK5 = molecular target: T4, MEK5 (Homo sapiens, UniProt Q13163); conditions: 1 μM; Run 1, Run 2
T4 sequence (Q13163 1-448): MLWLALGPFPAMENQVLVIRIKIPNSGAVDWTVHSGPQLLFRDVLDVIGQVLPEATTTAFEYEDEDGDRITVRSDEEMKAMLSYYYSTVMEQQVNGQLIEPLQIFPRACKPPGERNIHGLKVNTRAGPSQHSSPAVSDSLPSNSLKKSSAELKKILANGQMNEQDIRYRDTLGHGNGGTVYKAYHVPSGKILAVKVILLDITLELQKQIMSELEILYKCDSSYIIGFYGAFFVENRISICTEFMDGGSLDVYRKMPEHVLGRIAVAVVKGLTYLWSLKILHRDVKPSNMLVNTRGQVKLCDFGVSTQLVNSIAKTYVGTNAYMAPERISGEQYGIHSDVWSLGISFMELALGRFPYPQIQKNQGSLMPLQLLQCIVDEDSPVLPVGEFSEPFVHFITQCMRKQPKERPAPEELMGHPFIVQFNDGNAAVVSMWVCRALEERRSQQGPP

Chain of CDK18/cyclin Y (PCTK3) (Q07002 whole entry): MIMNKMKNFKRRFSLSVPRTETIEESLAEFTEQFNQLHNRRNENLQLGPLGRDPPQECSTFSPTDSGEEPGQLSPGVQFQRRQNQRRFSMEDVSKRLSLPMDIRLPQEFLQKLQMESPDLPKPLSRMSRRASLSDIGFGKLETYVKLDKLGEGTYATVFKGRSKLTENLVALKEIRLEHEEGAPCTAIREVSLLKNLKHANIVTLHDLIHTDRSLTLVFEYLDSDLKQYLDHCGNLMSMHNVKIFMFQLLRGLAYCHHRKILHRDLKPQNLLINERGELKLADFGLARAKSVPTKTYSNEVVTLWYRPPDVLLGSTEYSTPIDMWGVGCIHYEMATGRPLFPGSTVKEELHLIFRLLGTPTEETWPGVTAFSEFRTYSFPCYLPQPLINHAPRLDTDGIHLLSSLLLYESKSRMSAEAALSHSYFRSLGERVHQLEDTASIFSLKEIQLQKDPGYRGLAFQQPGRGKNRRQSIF
Chain of CDK18/cyclin Y (PCTK3) (Q8ND76 whole entry partner): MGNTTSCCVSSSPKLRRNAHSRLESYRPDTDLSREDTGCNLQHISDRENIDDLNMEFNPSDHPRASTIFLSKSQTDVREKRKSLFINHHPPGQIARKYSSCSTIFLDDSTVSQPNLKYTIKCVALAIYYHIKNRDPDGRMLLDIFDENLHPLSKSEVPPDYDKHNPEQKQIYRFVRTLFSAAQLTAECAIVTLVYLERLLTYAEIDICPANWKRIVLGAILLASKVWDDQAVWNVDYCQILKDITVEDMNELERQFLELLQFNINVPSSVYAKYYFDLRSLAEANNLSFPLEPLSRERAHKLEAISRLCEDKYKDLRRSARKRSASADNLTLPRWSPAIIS
Chain of ROCK1 (Q13464 whole entry): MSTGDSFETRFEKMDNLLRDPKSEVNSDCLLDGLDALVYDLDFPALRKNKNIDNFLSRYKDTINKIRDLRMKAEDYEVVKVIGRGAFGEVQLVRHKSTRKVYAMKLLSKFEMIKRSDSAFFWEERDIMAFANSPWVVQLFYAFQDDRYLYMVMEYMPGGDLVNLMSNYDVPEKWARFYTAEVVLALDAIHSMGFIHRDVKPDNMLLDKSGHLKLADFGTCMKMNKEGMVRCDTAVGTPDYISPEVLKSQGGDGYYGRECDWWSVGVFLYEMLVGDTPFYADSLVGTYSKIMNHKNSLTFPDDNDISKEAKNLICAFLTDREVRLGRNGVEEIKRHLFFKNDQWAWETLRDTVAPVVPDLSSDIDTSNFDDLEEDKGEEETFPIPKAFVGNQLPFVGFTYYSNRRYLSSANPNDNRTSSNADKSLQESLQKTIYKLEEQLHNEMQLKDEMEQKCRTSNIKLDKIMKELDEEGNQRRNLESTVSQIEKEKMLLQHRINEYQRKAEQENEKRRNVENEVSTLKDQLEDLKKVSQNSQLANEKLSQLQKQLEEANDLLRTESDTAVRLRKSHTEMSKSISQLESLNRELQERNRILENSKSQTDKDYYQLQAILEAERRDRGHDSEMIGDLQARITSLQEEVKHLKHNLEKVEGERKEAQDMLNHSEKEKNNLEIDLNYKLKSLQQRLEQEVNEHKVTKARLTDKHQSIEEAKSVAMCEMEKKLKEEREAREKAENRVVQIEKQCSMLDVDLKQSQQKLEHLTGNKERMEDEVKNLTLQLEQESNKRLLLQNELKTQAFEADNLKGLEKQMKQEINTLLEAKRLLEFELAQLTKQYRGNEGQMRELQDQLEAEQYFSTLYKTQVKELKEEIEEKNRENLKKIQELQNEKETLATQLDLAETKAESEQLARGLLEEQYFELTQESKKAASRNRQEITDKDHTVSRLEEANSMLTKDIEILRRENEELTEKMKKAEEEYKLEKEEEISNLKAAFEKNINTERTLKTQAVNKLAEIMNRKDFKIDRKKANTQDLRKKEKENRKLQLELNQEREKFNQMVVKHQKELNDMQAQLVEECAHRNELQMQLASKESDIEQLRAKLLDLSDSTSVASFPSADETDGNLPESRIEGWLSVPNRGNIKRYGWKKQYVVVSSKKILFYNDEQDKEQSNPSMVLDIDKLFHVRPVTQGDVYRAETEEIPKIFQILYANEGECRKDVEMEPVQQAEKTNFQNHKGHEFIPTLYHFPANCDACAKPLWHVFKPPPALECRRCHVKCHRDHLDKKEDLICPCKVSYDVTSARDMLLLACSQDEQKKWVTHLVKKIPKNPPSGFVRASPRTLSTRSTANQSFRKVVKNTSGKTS
Chain of CDK9/cyclin T2 (P50750 whole entry): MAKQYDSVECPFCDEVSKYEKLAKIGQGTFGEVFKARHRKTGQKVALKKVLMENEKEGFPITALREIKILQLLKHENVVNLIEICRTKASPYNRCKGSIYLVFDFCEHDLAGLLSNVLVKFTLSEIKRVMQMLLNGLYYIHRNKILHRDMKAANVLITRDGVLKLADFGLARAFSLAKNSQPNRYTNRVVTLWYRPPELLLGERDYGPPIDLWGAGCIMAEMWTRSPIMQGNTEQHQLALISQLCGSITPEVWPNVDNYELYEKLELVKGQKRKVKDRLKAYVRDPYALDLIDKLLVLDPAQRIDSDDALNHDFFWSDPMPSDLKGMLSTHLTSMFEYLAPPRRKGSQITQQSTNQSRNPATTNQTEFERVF
Chain of CDK9/cyclin T2 (O60583 whole entry partner): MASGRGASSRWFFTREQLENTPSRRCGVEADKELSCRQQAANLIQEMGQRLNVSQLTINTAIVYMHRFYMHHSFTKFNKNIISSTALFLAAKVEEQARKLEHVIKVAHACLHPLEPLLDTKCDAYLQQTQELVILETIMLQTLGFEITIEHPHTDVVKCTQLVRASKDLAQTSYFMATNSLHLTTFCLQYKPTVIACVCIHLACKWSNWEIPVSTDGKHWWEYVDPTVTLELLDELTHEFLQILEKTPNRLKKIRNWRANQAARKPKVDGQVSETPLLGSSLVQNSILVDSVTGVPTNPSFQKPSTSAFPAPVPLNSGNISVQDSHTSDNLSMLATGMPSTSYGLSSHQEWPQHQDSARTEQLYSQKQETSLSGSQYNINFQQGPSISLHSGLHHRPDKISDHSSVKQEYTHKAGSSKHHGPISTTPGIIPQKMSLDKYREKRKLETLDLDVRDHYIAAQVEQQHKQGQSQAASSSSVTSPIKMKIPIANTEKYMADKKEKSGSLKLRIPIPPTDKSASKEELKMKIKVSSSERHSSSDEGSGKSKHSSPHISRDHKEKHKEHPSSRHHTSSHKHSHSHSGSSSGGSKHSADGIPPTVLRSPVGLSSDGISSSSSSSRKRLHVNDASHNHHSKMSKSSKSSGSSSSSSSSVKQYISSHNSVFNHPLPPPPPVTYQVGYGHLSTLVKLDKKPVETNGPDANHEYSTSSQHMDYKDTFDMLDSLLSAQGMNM

COc1cc(-c2cncc(-c3ccc(N4CCN(C)CC4)cc3)c2C)cc(F)c1C(N)=O [Compound 26a, 2-Fluoro-6-methoxy-4-(4-methyl-5-(4-(4-methylpiperazin-1-yl)phenyl)pyridin-3-yl)benzamide]
% enzyme activity (PKCa): 89.62%
% enzyme activity (P38g): 107.36%
remaining activity at 1 µM (PKD2/PRKD2): 96.1%
% enzyme activity (CDK18/cyclin Y (PCTK3)): 100.43%
% enzyme activity (ROCK1): 91.98%
remaining activity at 1 µM (MYLK3): 99.8%
% enzyme activity (CDK9/cyclin T2): 99.00%
% enzyme activity (MEK5): 85.95%

COc1cc(-c2cncc(-c3ccc(N4C[C@@H](C)N(C)[C@@H](C)C4)cc3)c2C)cc(F)c1C(N)=O [Compound 26c, 2-Fluoro-6-methoxy-4-(4-methyl-5-(4-((3R,5S)-3,4,5-trimethylpiperazin-1-yl)phenyl)pyridin-3-yl)benzamide]
% enzyme activity (PKCa): 89.76%
% enzyme activity (P38g): 105.83%
remaining activity at 1 µM (PKD2/PRKD2): 99.2%
% enzyme activity (CDK18/cyclin Y (PCTK3)): 97.60%
% enzyme activity (ROCK1): 92.61%
remaining activity at 1 µM (MYLK3): 100%
% enzyme activity (CDK9/cyclin T2): 100.35%
% enzyme activity (MEK5): 92.97%
